For experiment [1], the target named is T1, Human LPA1 (Homo sapiens, UniProt Q92633). Nature of the experiment: Beta-Arrestin based assay for human LPA1R antagonists (PathHunter). As to conditions: CHO cells stably expressing ProLink tagged human LPA1R; agonist LPA 0.5 micromolar. Type of experiment: cell-based. The arrangement: host or cells: CHO. The method, boiled down: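 CHO cells stably expressing ProLink-tagged human LPA1R with β-arrestin–EA fusion, assayed by β-galactosidase complementation. Antagonists tested against 0.5 micromolar LPA ([…]), in quadruplicate. End-point luminescence fitted to a 4-parameter logistic to give IC50.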

In experiment [2] the target is T1, Human LPA1. In words: LPA1 calcium flux assay. As to conditions: human LPA1 expressing CHO cells; stimulated with 10 nM LPA; read-out: Ca Flux LPA1 IC50. Type of experiment: cell-based. The arrangement: the full-length cDNA for human LPA1 is obtained by PCR of the reverse transcription reaction; expressed in transfected cells; host or cells: CHO. Here is the method: Establishment of a CHO Cell Line Stably Expressing Human LPA1
A 1.1 kb cDNA encoding the human LPA1 receptor is cloned from human lung. Human lung RNA (Clontech Laboratories, Inc. USA) is reverse transcribed using the RETROscript kit (Ambion, Inc.) and the full-length cDNA for human LPA1 is obtained by PCR of the reverse transcription reaction. The nucleotide sequence of the cloned human LPA1 is determined by sequencing and is confirmed to be identical to the published human LPA1 sequence (An et al. Biochem. Biophys. Res. Commun. 231:619 (1997). The cDNA is cloned into the pcDNA5 pcDNA5/FRT expression plasmid and is transfected in CHO cells using lipofectamine 2000 (Invitrogen Corp., USA). Clones stably expressing human LPA1 are selected using hygromycin and identified as cells that show Ca-influx in response to LPA.
LPA1 and LPA3 Calcium Flux Assays
Human LPA1 or LPA3 expressing CHO cells were seeded at 20,000-45,000 cells per well in a 96-well poly-D-lysine coated plate one or two days before the assay. Prior to the assay, the cells were washed once with PBS and then cultured in serum-free media overnight. On the day of the assay, a calcium indicator dye (Calcium 4, Molecular Devices) in assay buffer (HBSS with Ca^2+ and Mg^2+ and containing 20 mM Hepes and 0.3% fatty-acid free human serum albumin) was added to each well and incubation continued for 1 hour at 37° C. 10 μl of test compounds in 2.5% DMSO were added to the cells and incubation continued at room temperature for 30 minutes. Cells were then stimulated by the addition of 10 nM LPA and intracellular Ca^2+ measured using the Flexstation 3 (Molecular Devices). IC50s were determined using Graphpad prism analysis of drug titration curves.

The values below come from patent publication US8975235B2, “Lysophosphatidic acid receptor antagonists” (InterMune, Inc., priority 2011, dated 2015).

T1 sequence (Q92633 whole entry, the tested form may be a part): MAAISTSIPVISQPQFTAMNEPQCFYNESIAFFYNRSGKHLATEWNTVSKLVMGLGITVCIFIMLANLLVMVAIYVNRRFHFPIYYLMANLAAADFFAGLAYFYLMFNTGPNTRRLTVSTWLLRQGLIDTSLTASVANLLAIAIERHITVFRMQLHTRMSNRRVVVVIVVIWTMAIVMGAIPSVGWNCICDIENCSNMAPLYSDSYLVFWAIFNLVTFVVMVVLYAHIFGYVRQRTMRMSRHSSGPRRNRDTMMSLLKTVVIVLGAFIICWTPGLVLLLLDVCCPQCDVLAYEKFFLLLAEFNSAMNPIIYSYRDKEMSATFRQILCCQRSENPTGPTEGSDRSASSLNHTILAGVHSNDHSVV

As for `Cc1nsc(-c2ccc(-c3ccc(C(C(=O)O)c4ccccc4)cc3)cc2)c1NC(=O)O[C@H](C)c1ccccc1Cl` (single isomer, unassigned) [Compound 70], the EC50 at Human LPA1 [1] was below 50 nM. Moreover, the IC50 on Human LPA1 [2] is above 500 nM.
At Human LPA1 [1], `Cc1nsc(-c2ccc(-c3ccc(C(C(=O)O)c4ccccc4)cc3)cc2)c1NC(=O)O[C@H](C)c1ccccc1Cl` (single isomer, unassigned) [Compound 71] showed an EC50 of 50 to 500 nM. Further, the half-maximal inhibitory concentration (IC50) on Human LPA1 [2] is above 500 nM.
With `Cc1noc(-c2ccc(-c3ccc(CC(=O)O)cc3)cc2)c1NS(=O)(=O)c1ccccc1` [Compound 19], the EC50 at Human LPA1 [1] was above 500 nM. Moreover, on Human LPA1 [2], the IC50 is above 500 nM.
In turn, `Cc1onc(-c2ccc(-c3ccc(C4(C(=O)O)CC4)cc3)cc2)c1NC(=O)O[C@H](C)c1ccccc1Cl` [Compound 30] yielded an EC50 at Human LPA1 [1] below 50 nM. Further, the IC50 at Human LPA1 [2] is below 50 nM.
In turn, `Cc1nsc(-c2ccc(-c3ccc(C4(C(=O)O)CC4)cc3)cc2)c1NC(=O)O[C@H](C)c1ccccc1` [Compound 44] registered an EC50 at Human LPA1 [1] below 50 nM. Also, at Human LPA1 [2], the IC50 is below 50 nM.
For the molecule `Cc1nsc(-c2ccc(-c3ccc(C4(C(=O)O)CC4)cc3)cc2)c1NC(=O)OCc1ccccc1` [Compound 45], the EC50 on Human LPA1 [1] is below 50 nM. In addition, the IC50 on Human LPA1 [2] was below 50 nM.
On to `Cc1nsc(-c2ccc(-c3ccc(C4(C(=O)O)CC4)cc3)cc2)c1NC(=O)OCc1ccccc1Cl` [Compound 46], for which the EC50 on Human LPA1 [1] was in the range of 50 to 500 nM. Moreover, on Human LPA1 [2], the IC50 was 50 to 500 nM.
In turn, `Cc1snc(-c2ccc(-c3ccc(C4(C(=O)O)CC4)cc3)cc2)c1NC(=O)O[C@H](C)c1ccccc1Cl` [Compound 56] yielded an EC50 on Human LPA1 [1] below 50 nM. For the same molecule, the IC50 on Human LPA1 [2] lay within 50 to 500 nM.
For the molecule `C[C@@H](OC(=O)Nc1c(-c2ccc(-c3ccc(C4(C(=O)O)CC4)cc3)cc2)oc2ccc(F)cc12)c1ccccc1Cl` [Compound 60], the EC50 on Human LPA1 [1] is 50 to 500 nM. Also, on Human LPA1 [2], the IC50 was above 500 nM.
On the same counts, the results for `C[C@@H](OC(=O)Nc1c(-c2ccc(-c3ccc(C4(C(=O)O)CC4)cc3)cc2)oc2cc(F)ccc12)c1ccccc1Cl` [Compound 61] are below 50 nM and above 500 nM.
The molecule `Cc1nnn(-c2ccc(-c3ccc(C4(C(=O)O)CC4)cc3)cc2)c1NC(=O)O[C@H](C)c1ccccc1Cl` [Compound 64] came in with an EC50 at Human LPA1 [1] below 50 nM. In addition, the IC50 at Human LPA1 [2] was 50 to 500 nM.
On the same counts, the results for `C[C@@H](OC(=O)Nc1ccnn1-c1ccc(-c2ccc(C3(C(=O)O)CC3)cc2)cc1)c1ccccc1Cl` [Compound 67] are below 50 nM and below 50 nM.
On to `C[C@@H](OC(=O)Nc1ccn(-c2ccc(-c3ccc(C4(C(=O)O)CC4)cc3)cc2)n1)c1ccccc1Cl` [Compound 68], for which, at Human LPA1 [1], the EC50 is above 500 nM. Moreover, the IC50 on Human LPA1 [2] is above 500 nM.
`Cc1noc(-c2ccc3c(c2)CCc2cc(CC(=O)O)ccc2-3)c1NC(=O)O[C@H](C)c1ccccc1Cl` [Compound 78] had an EC50 at Human LPA1 [1] of 50 to 500 nM. Further, the IC50 on Human LPA1 [2] is 50 to 500 nM.
In the case of `Cc1noc(-c2ccc(-c3ccc(C4CCOCC4C(=O)O)cc3)cc2)c1NC(=O)O[C@H](C)c1ccccc1Cl` (stereo partly drawn) [Compound 79], the EC50 at Human LPA1 [1] was below 50 nM. In addition, the IC50 on Human LPA1 [2] lay within 50 to 500 nM.
On Human LPA1 [1], `Cc1noc(-c2ccc(-c3ccc(C4(C(=O)O)COC4)cc3)cc2)c1NC(=O)O[C@H](C)c1ccccc1` [Compound 80] yielded an EC50 below 50 nM. The IC50 on Human LPA1 [2] was in the range of 50 to 500 nM.
On the same counts, the results for `Cc1nsc(C#Cc2ccc(C3(C(=O)O)CC3)cc2)c1NC(=O)O[C@H](C)c1ccccc1Cl` [Compound 81] are below 50 nM and below 50 nM.
The like results for `Cc1nsc(C#Cc2ccc(C3(C(=O)O)CC3)cc2)c1NC(=O)O[C@H](C)c1ccccc1` [Compound 82] were, in that order, 50 to 500 nM and above 500 nM.
`Cc1nsc(-c2ccc(-c3ccc(C4(C(=O)O)CC4)cc3)cc2)c1NC(=O)O[C@H](C)c1ccccc1F` [Compound 83]: the EC50 at Human LPA1 [1] is below 50 nM. Moreover, on Human LPA1 [2], the IC50 is 50 to 500 nM.
Molecule `Cc1ccccc1[C@@H](C)OC(=O)Nc1c(C)nsc1-c1ccc(-c2ccc(C3(C(=O)O)CC3)cc2)cc1` [Compound 86] displayed an EC50 on Human LPA1 [1] below 50 nM. Further, on Human LPA1 [2], the IC50 was 50 to 500 nM.
Turning to `Cc1snc(-c2ccc(-c3ccc(C4(C(=O)O)CC4)cc3)cc2)c1NC(=O)O[C@H](C)c1ccccc1` [Compound 105], the EC50 at Human LPA1 [1] was below 50 nM. The 50% inhibitory concentration (IC50) at Human LPA1 [2] is below 50 nM.
In the case of `C[C@@H](OC(=O)Nc1scnc1-c1ccc(-c2ccc(C3(C(=O)O)CC3)cc2)cc1)c1ccccc1Cl` [Compound 107], at Human LPA1 [1], the half-maximal effective concentration (EC50) is below 50 nM. In addition, the IC50 at Human LPA1 [2] is below 50 nM.
In turn, `Cc1noc(-c2ccc3cc(C#CC4(C(=O)O)CC4)ccc3c2)c1NC(=O)O[C@H](C)c1ccccc1` [Compound 140] came in with an EC50 at Human LPA1 [1] below 50 nM. The half-inhibitory concentration (IC50) at Human LPA1 [2] was below 50 nM.
In the case of `C[C@@H](OC(=O)Nc1ocnc1-c1ccc(-c2ccc(C3(C(=O)O)CC3)cc2)cc1)c1ccccc1Cl` [Compound 147], the EC50 at Human LPA1 [1] was below 50 nM. On Human LPA1 [2], the IC50 fell in the range of 50 to 500 nM.
On Human LPA1 [1], `Cc1nsc(-c2ccc(-c3ccc(C4(C(=O)O)CC4)cn3)cc2)c1NC(=O)O[C@H](C)c1ccccc1Cl` [Compound 252] gave an EC50 of 50 to 500 nM.
Same read-out and setting: to `Cc1nsc(-c2ccc(-c3ccc(C4(C(=O)O)CC4)cc3)cc2)c1NC(=O)OC(C)c1ccccc1` (stereo not drawn) [Compound 253] belongs below 50 nM; to `Cc1noc(C#Cc2cc3sc(C(=O)O)cc3s2)c1NC(=O)O[C@H](C)c1ccccc1` [Compound 254], 50 to 500 nM; to `Cc1noc(C#Cc2cc3sc(C4(C(=O)O)CC4)cc3s2)c1NC(=O)O[C@H](C)c1ccccc1` [Compound 255], below 50 nM.
The same measure, in the same setting: next, `O=C(O)Cc1ccc(C2CCN(C(=O)CCNC(=O)OCc3ccccc3)CC2)cc1` [Compound 256]: above 500 nM; `O=C(O)Cc1ccc(C2CCN(C(=O)[C@@H](Cc3ccccc3)NC(=O)OCc3ccccc3)CC2)cc1` [Compound 257]: above 500 nM; `CN(CC(=O)N1CCC(c2ccc(CC(=O)O)cc2)CC1)C(=O)OCc1ccccc1` [Compound 258]: above 500 nM.
Take `O=C(O)Cc1ccc(N2CCN(C(=O)CCNC(=O)COc3ccccc3)CC2)cc1` [Compound 265]: the EC50 at Human LPA1 [1] was above 500 nM.
Same read-out and setting: to `O=C(O)Cc1ccc(N2CCN(C(=O)[C@@H](Cc3ccccc3)NC(=O)OCc3ccccc3)CC2)cc1` [Compound 266] belongs above 500 nM; to `C[C@H](NC(=O)OCc1ccccc1)C(=O)N1CCN(c2ccc(CC(=O)O)cc2)CC1` [Compound 267], above 500 nM.
On the same count and under the same terms, next, `O=C(O)Cc1ccc(N2CCN(C(=O)[C@@H](NC(=O)OCc3ccccc3)c3ccccc3)CC2)cc1` [Compound 268]: above 500 nM; `O=C(O)Cc1ccc(N2CCN(C(=O)CNC(=O)OCc3ccccc3)CC2)cc1` [Compound 269]: above 500 nM; `O=C(O)Cc1ccc(N2CCN(C(=O)CCCNC(=O)OCc3ccccc3)CC2)cc1` [Compound 270]: above 500 nM.
Still for that read-out and setting: to `CN(CC(=O)N1CCN(c2ccc(CC(=O)O)cc2)CC1)C(=O)OCc1ccccc1` [Compound 271] belongs above 500 nM; to `O=C(O)Cc1ccc(N2CCN(C(=O)[C@H](NC(=O)OCc3ccccc3)c3ccccc3)CC2)cc1` [Compound 272], above 500 nM; to `C[C@@H](NC(=O)OCc1ccccc1)C(=O)N1CCN(c2ccc(CC(=O)O)cc2)CC1` [Compound 273], above 500 nM.
Consider `CCCC(=O)Nc1ccnc(-c2ccc(-c3ccc(CC(=O)O)cc3)cc2)c1` [reference compound], for which, on Human LPA1 [1], the half-maximal effective concentration (EC50) was above 500 nM.
The same measure, in the same setting: next, `CCCCC(=O)NCC(=O)c1ccc(-c2ccc(CC(=O)O)cc2)cc1` [reference compound]: above 500 nM.
The same measure, in the same setting: next, `CC(=O)Nc1ccnc(-c2ccc(-c3ccc(CC(=O)O)cc3)cc2)c1` [reference compound]: above 500 nM.
`CCC(=O)Nc1ccnc(-c2ccc(-c3ccc(CC(=O)O)cc3)cc2)c1` [reference compound] returned an EC50 on Human LPA1 [1] above 500 nM.
Same read-out and setting: next, `O=C(O)Cc1ccc(-c2ccc(-c3cc(NC(=O)C4CCCC4)ccn3)cc2)cc1` [reference compound]: above 500 nM.
`CC(C)NC(=O)Nc1ccnc(-c2ccc(-c3ccc(CC(=O)O)cc3)cc2)c1` [reference compound] returned an EC50 at Human LPA1 [1] above 500 nM.
`CCCOC(=O)NCC(=O)c1ccc(-c2ccc(CC(=O)O)cc2)cc1` [reference compound] displayed an EC50 at Human LPA1 [1] above 500 nM.
Consider `CC(C)NC(=O)Nc1ncncc1-c1ccc(-c2ccc(CC(=O)O)cc2)cc1` [reference compound], for which the EC50 at Human LPA1 [1] was above 500 nM.

What is called EC50 is the concentration that produces a half-maximal response. Higher therefore signals lower potency in that assay. As a reminder, the IC50 is the midpoint of a concentration-inhibition curve.
